Seven compounds from ChEMBL document CHEMBL5465560, “Selectivity Literature for EUbOPEN Chemogenomic Library” (2024) can be followed below.

For assay [1], the target named is T1, MAP/microtubule affinity-regulating kinase 4 (Homo sapiens) (UniProt Q96L34).
T1 sequence (whole entry): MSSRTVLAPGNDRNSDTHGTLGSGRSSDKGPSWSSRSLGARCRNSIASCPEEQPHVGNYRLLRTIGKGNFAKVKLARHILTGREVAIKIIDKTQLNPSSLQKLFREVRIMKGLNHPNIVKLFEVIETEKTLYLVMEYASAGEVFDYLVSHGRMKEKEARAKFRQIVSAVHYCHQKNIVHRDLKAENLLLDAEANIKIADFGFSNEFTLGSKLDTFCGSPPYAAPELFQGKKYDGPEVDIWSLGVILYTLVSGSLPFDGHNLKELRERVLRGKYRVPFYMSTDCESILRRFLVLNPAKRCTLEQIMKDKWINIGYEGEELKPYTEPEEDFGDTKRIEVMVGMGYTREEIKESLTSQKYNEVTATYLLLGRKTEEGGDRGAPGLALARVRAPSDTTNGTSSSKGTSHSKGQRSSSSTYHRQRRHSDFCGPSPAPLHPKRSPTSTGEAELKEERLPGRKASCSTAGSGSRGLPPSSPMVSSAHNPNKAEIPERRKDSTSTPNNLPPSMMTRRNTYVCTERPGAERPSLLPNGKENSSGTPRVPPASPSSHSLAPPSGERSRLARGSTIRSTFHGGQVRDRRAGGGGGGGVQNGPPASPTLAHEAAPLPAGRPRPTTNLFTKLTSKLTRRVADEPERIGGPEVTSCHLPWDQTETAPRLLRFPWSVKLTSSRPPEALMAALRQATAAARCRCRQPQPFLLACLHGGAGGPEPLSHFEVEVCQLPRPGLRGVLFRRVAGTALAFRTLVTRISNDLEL
As to the kind of experiment: Selectivity interaction (Kinase panel (KiNativ target engagement assay in Jurkat cells)) EUB0001635a MARK4. It counts as cell-based. The conditions noted are these: Selectivity number of off-targets 0.0, Selectivity number of targets 233.0, Source Knowledge https://www.sciencedirect.com/science/article/pii/S2451945619300674?via%3Dihub, at 1 µM.

The target in assay [2] is Homeodomain-interacting protein kinase 1 (Homo sapiens, UniProt Q86Z02). The conditions noted are these: at 10 µM.
Sequence of Homeodomain-interacting protein kinase 1 (Q86Z02 whole entry, looked up): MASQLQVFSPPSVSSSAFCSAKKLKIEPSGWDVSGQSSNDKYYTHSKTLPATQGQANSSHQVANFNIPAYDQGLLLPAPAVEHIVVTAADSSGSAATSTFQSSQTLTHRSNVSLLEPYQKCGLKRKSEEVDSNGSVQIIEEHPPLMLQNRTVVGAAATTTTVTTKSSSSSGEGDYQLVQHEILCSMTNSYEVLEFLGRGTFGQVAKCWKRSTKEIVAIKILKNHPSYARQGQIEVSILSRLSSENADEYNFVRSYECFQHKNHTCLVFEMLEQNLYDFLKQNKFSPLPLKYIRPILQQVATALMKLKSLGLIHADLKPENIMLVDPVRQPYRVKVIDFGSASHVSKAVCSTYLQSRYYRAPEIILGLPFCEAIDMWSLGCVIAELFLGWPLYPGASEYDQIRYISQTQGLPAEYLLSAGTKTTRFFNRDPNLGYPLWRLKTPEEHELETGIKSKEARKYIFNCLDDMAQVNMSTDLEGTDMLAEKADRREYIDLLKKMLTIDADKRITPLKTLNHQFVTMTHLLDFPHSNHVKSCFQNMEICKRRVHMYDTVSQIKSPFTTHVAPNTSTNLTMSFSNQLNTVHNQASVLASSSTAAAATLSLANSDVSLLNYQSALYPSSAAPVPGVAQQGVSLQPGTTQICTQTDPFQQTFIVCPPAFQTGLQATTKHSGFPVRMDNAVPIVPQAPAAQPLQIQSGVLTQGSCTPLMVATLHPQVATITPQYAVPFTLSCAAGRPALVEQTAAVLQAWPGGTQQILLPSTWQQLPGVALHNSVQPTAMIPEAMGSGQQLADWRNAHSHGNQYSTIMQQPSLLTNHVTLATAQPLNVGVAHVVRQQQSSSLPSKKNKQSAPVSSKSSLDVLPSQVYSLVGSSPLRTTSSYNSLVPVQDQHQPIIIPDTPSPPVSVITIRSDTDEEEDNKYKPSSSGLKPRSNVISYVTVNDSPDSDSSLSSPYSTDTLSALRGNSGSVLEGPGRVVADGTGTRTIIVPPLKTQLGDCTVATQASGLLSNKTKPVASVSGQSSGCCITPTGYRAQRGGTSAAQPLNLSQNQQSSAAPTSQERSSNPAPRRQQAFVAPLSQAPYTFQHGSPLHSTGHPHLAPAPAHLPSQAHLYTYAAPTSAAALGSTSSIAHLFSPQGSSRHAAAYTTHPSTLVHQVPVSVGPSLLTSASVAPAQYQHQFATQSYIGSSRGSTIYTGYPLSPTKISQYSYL
Assay [3] concerns the target Dual specificity mitogen-activated protein kinase kinase 2 (Homo sapiens) (UniProt P36507). Kind of assay: Selectivity interaction (KinomeScan (DiscoverX)) EUB0001619a MAP2K2. The conditions noted are these: at 1 µM.
Assay [4] addresses Serine/threonine-protein kinase 25 (Homo sapiens) (UniProt O00506). As to the kind of experiment: Selectivity interaction (ActivX KiNativ screen (kinase selectivity in THP-1 cell lysates)) EUB0000639a STK25. The assay is classed as subcellular. The conditions noted are these: lysate.
The target in assay [5] is Myosin-IIIa (Homo sapiens) (UniProt Q8NEV4). The conditions noted are these: at 10 µM.
Sequence of Myosin-IIIa (Homo sapiens) (Q8NEV4 whole entry): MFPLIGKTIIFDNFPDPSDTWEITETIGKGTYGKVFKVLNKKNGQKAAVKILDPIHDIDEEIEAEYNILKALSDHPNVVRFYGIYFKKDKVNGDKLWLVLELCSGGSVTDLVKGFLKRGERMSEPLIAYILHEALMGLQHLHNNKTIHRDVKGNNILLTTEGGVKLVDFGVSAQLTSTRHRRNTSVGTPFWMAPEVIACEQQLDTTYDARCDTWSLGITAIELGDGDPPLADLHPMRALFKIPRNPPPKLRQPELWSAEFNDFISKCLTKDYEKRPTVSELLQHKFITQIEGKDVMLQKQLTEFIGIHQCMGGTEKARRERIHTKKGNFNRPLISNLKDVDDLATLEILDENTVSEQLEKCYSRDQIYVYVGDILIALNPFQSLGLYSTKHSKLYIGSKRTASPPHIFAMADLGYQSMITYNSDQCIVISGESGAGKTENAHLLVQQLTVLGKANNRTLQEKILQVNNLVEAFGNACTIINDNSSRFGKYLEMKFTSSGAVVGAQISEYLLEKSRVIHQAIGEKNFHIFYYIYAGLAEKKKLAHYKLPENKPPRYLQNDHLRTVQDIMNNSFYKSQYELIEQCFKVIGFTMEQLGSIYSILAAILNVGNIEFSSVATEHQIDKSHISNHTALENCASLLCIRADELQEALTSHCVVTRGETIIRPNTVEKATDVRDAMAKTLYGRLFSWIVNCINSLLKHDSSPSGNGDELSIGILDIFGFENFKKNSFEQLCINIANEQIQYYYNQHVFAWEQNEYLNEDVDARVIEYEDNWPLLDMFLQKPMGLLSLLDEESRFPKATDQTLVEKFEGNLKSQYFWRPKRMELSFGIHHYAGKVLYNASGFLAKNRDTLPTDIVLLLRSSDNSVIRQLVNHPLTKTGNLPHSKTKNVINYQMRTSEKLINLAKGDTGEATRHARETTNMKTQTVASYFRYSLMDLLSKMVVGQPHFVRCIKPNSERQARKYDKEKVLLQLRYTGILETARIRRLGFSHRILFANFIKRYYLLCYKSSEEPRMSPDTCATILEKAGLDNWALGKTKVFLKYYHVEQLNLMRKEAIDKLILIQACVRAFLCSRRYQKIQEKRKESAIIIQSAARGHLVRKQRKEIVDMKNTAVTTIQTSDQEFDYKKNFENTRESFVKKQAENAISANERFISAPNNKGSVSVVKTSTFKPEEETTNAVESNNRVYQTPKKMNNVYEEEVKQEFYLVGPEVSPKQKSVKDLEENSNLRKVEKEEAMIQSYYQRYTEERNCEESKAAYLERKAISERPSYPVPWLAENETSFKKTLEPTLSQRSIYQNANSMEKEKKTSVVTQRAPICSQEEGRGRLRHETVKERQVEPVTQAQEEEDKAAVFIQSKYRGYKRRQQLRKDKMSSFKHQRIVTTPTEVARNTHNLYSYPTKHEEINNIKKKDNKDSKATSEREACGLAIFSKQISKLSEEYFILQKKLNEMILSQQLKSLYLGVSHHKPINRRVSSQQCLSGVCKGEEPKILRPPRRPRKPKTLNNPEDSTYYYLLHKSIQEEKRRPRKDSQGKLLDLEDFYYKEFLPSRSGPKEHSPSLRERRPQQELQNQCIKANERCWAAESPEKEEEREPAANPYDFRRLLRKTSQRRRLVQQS
The target of assay [6] is T2, Homeodomain-interacting protein kinase 4 (Homo sapiens) (UniProt Q8NE63).
T2 sequence (whole entry): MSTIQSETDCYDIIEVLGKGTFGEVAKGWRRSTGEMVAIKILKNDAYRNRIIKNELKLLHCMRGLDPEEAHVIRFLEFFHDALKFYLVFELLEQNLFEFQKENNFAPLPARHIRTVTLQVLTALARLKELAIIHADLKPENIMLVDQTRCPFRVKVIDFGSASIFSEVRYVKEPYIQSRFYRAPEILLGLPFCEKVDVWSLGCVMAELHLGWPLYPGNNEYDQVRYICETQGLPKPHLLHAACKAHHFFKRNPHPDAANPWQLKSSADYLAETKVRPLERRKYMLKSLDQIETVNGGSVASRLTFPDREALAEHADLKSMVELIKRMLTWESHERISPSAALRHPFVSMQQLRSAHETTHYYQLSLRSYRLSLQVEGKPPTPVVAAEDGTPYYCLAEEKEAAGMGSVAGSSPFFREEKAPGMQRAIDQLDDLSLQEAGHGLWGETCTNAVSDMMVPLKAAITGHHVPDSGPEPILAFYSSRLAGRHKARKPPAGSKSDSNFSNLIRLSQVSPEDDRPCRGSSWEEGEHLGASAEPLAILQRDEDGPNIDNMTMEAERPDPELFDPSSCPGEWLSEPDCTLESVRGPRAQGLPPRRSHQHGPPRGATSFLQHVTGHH
As to the kind of experiment: Selectivity interaction (KinomeScan (DiscoverX)) EUB0000695a HIPK4. The conditions noted are these: at 100 nM.

The target of assay [7] is T3, Tyrosine-protein kinase Mer (Homo sapiens) (UniProt Q12866).
T3 sequence (whole entry): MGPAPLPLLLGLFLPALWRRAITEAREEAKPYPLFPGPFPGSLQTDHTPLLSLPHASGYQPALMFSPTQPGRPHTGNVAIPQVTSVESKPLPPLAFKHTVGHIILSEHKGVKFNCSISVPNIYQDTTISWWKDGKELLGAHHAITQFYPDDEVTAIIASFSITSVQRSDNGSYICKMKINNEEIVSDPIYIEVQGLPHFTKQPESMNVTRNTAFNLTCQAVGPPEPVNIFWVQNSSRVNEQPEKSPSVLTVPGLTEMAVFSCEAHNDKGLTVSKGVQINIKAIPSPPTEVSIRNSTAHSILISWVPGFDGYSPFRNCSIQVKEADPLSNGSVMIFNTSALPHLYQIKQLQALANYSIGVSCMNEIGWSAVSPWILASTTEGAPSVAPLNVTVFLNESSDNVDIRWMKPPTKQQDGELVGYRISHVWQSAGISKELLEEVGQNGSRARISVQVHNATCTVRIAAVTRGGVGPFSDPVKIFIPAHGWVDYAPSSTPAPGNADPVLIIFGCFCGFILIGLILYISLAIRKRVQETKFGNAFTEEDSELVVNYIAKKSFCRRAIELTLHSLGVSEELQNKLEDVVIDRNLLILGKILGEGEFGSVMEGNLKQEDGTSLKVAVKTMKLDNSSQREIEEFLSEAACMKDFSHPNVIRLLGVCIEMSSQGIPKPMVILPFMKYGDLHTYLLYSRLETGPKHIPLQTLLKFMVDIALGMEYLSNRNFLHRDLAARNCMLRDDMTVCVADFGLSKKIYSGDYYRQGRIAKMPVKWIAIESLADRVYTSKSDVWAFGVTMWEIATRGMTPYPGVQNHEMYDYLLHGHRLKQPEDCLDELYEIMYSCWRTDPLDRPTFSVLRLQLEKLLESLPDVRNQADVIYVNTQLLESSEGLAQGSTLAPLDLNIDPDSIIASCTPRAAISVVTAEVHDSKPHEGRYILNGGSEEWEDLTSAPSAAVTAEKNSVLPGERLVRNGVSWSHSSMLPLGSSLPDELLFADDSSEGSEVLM
As to the kind of experiment: Selectivity interaction (KinomeScan (DiscoverX)) EUB0000695a MERTK. The conditions noted are these: at 100 nM.

The target in assay [8] is Serine/threonine-protein kinase tousled-like 2 (Homo sapiens) (UniProt Q86UE8). As to the kind of experiment: Selectivity interaction (KinomeScan (DiscoverX)) EUB0000695a TLK2. The conditions noted are these: at 100 nM.
Assay [9] deals with Vascular endothelial growth factor receptor 2 (Homo sapiens, UniProt P35968). As to the kind of experiment: Selectivity interaction (Upstate Kinase Profiler service (Millipore)) EUB0000056c KDR. The conditions noted are these: at 1 µM.
Sequence of Vascular endothelial growth factor receptor 2 (P35968 whole entry): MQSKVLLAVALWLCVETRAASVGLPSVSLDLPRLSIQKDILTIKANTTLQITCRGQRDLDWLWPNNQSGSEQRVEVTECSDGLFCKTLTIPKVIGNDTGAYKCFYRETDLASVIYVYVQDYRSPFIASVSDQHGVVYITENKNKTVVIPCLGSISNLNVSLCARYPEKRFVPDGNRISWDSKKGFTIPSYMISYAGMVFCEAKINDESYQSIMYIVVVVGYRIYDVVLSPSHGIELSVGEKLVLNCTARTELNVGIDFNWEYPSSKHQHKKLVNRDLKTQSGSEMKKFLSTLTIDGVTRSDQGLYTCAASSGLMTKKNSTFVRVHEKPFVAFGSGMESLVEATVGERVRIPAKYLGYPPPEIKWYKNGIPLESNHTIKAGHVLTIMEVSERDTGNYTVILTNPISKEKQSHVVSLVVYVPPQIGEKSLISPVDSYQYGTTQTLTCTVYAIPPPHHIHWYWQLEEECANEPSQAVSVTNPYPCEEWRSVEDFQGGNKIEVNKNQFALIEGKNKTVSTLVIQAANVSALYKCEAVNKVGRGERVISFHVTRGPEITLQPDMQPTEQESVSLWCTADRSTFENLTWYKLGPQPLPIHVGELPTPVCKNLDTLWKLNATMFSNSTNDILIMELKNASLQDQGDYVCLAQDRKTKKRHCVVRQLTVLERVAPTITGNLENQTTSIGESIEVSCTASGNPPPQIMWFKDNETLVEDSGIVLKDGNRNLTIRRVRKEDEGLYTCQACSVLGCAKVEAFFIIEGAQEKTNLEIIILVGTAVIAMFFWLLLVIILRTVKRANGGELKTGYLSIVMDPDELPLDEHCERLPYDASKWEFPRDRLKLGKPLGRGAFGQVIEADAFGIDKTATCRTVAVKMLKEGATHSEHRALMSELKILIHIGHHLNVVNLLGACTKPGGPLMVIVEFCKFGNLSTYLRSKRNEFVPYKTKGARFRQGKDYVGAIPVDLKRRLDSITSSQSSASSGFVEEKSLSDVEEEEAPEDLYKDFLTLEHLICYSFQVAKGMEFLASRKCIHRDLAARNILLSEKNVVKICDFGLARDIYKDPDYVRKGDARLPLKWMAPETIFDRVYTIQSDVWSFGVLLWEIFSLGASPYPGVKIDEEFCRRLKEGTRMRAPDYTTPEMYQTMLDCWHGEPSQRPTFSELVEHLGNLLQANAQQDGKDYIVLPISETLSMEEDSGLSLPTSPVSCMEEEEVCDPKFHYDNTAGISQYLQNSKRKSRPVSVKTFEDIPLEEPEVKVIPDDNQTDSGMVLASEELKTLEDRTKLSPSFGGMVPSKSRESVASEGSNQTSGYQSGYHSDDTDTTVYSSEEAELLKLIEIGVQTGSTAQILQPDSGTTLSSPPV

Sequence of Serine/threonine-protein kinase 25 (Homo sapiens) (O00506 whole entry, looked up): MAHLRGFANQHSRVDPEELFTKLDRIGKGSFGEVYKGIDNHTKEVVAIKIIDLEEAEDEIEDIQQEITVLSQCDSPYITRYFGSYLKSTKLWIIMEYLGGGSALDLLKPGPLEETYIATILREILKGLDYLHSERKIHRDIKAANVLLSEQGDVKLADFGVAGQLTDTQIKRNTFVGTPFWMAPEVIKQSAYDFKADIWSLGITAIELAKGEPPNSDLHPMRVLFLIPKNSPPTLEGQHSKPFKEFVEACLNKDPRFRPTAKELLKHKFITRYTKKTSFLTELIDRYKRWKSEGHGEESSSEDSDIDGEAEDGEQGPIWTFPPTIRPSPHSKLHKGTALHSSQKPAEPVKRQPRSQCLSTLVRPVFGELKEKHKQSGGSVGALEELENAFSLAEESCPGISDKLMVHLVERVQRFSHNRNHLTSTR
Sequence of Dual specificity mitogen-activated protein kinase kinase 2 (Homo sapiens) (P36507 whole entry): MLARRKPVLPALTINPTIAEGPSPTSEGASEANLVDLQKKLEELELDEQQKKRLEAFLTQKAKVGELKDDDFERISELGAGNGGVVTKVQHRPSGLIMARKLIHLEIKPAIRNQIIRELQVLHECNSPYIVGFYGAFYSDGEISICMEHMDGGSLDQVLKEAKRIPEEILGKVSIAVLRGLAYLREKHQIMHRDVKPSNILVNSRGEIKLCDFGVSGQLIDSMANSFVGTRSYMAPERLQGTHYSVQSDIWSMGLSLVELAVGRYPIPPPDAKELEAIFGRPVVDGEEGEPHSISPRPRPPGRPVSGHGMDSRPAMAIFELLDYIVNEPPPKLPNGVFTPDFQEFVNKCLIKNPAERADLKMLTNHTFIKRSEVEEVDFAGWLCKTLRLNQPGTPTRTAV

Compound `C=CC(=O)Nc1ccc(C(=O)Nc2[nH]nc3c2CN(C(=O)N[C@H](CN(C)C)c2ccccc2)C3(C)C)cc1` displayed a % of engagement in [1] of 55.8%.

`Cc1cc([C@@H](C)Nc2ccccc2C(=O)O)c2nc(N3CCOCC3)cc(=O)n2c1` [AZD-6482] gave a % of control in assay [2] of 100%. `N#Cc1cccc(-c2c[nH]c3ncnc(N4CCOCC4)c23)c1`: the % of control in assay [3] is 19%.

With `CC[C@@H]1[C@H](F)C(=O)N[C@@H]1COc1nccc2cc(C(N)=O)c(OC)cc12` [ZIMLOVISERTIB], the % of inhibition is 19.6% in assay [4] (at 0.01 µM); -3.8% in [4] (at 0.04 µM); -4.9% in assay [4] (at 0.2 µM); -9.2% in assay [4] (at 1 µM); 21.8% in assay [4] (at 5 µM).

For `CCN(CC)CCCCNc1ncc2cc(-c3cc(OC)cc(OC)c3)c(NC(=O)NC(C)(C)C)nc2n1`, the % of control in [5] worked out at 100%.

For `Cc1cc(F)c(C(=O)Nc2cccc(-c3nncn3C(C)C)n2)cc1-n1cnc(C2CC2)c1`, the % of control came out at 100% in assay [6], 99% in assay [7] and 100% in assay [8]. Turning to `Cc1ccc(-c2ccc3c(ccc4sc5c(c43)NC[C@@H](C)NC5=O)n2)cn1`, in assay [9], the % of inhibition turned out to be 32%.
